The record followed here is patent publication US20080318949A1, “Pyrazolopyrimidinone Derivatives, Their Preparation And Their Use” (Topharman Shanghai Co., Ltd, priority 2005, published 2008).

SMILES strings stand for the structures.

Data set [1] has as its system rat corpora cavernosa. Briefly: Pharmacodynamic test: intracavernous pressure on electric stimulation of the cavernous nerve. The format is in vivo. As to conditions: anesthetized male SD rats, 5 mg/kg orally, ratio of ICP to MBp. On the procedure: The test was carried out based on the methods reported (International Journal of Impotence Research 2002, 14, 251 and The Journal of Urology 1992, 147, 1124). After fasted for 12 hours, 4 male SD rats were randomized into each group. After anesthetizing the rats with sodium pentobarbital (50 mg/kg, i.p.), the penile skin was incised and the prepuce was degloved to expose completely the corpora cavernosa (CC). A needle linked to an electrophysiology instrument was inserted into the CC on the right side in order to measure the intracavernous pressure (ICP). The right carotid artery was cannulated in a similar manner to the polyethylene tube in order to monitor the mean blood pressure (MBp) continuously. […] Electric stimulation was performed at 2 Hz, for 60 s with a pulse duration of 5 ms and 3V using a stimulator. The compounds were administrated orally (5 mg/kg). The change of the ICP and MBp were monitored continuously before and after the administration. The effect of the compounds on the erection induced by electric stimulation was evaluated by the ratio of ICP to MBp. The parameter (ICP/MBp) was used to estimate the influence of the compounds to the rat corpora cavernosa. […] The statistical significance of the differences between groups was calculated using Duncan's multiple comparison.

Data set [2] has as its target T1, PDE3 (Homo sapiens, UniProt Q14432).
T1 construct: from tissue; host or cells: human platelets
Briefly: PDE3 inhibitory activity test (scintillation proximity assay). The format is biochemical. To be noted: PDE3 isolated from human platelets. From the text: (§1) The PDE5 and PDE3 were isolated form human platelets, while the PDE6 was isolated form bovine retinas. The enzyme inhibitory activity test conducted immediately after the enzymes had been isolated, using a scintillation proximity assay for the direct detection of AMP/GMP by the TRKQ7100 and TRKQ7090 kit. In summary, the effect of PDE inhibitors was investigated by assaying a fixed amount of enzyme in the presence of varying inhibitor concentrations and low substrate. The final assay volume was made up to 100 μl with 10 μl assay buffer (50 mM Tris/HCl PH 7.5, 8.3 mM MgCl2, 1.7 mM EGTA), and water. Reactions were initiated with enzyme, incubate for 30 minutes at 30° C. and terminated with 50 μl yttrium silicate SPA beads suspension containing zinc sulphate. Shook for 20 minutes and settled for 30 minutes in the dark, then counted on a BECKMAN LS6500 MULTI-PURPOSE SCINTILLATION COUNTER. The IC50 value for the compounds according the present invention was calculated according the counts.
PDE3 is a PDE isozyme distributed mainly in heart, so the inhibiting of PDE3 may lead to side effects associated with heart. Accordingly, the inhibitory activities of some example compounds according to the invention against PDE3 were determined.

The target of data set [3] is T2, PDE5 from human platelets (Homo sapiens, UniProt O76074).
T2 construct: from tissue; host or cells: human platelets
As to the kind of experiment: PDE5 inhibitory activity test (scintillation proximity assay). In kind it is biochemical.
From the text: as §1
According to the above-mentioned method, the inhibitory activities of some compounds of formula IA and IB according to the invention against PDE5 from human platelets were determined.

Data set [4] deals with T3, PDE6 from bovine retina (Bos taurus, UniProt P11541+P23439).
T3 construct: the PDE6 was isolated form bovine retinas; from tissue; host or cells: bovine retina
T3 sequence (P11541 2-856 limits assumed): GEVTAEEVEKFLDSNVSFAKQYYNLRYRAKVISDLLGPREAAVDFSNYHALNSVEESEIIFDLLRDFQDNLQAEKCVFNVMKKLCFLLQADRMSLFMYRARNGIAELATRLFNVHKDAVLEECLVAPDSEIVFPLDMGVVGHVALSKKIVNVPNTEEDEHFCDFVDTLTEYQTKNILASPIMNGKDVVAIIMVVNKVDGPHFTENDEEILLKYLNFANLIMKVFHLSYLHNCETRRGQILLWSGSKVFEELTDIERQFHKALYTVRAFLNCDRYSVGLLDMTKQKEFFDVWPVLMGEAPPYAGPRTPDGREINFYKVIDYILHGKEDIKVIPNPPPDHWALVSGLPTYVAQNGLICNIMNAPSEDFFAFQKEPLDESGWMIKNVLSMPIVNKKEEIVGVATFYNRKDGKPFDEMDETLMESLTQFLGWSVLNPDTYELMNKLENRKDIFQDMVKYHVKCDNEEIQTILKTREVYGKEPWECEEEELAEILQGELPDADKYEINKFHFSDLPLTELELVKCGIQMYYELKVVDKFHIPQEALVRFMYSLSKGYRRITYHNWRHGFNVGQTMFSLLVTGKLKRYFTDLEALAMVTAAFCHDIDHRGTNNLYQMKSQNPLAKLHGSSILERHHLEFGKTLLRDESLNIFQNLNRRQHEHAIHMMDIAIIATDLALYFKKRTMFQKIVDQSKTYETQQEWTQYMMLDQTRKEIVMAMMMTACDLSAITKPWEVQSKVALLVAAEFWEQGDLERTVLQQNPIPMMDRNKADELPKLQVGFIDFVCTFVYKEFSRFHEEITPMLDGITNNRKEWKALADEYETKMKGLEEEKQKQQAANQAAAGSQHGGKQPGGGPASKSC
T3 sequence (P23439 2-850 limits assumed): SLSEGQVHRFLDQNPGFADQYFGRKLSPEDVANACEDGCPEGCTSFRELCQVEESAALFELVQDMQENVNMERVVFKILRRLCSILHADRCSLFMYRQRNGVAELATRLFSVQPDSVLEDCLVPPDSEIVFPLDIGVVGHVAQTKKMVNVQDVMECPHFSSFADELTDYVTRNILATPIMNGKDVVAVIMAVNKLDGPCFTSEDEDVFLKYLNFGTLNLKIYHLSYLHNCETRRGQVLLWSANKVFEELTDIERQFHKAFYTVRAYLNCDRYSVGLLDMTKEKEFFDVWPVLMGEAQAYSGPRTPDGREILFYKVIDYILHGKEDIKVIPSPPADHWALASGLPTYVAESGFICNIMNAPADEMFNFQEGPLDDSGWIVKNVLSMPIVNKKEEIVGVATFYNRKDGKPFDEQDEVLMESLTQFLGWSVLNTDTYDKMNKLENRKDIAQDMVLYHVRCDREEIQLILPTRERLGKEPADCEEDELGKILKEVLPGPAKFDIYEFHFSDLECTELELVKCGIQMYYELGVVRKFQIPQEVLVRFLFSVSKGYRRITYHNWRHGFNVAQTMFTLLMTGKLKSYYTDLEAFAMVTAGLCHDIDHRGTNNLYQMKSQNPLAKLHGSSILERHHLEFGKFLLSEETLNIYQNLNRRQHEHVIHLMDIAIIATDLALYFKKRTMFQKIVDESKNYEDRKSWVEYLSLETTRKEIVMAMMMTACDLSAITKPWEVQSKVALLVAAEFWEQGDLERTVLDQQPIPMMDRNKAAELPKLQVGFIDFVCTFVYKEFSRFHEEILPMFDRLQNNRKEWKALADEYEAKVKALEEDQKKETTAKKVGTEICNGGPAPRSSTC
Briefly: PDE6 inhibitory activity test (scintillation proximity assay). In kind it is biochemical. As to conditions: for IC50: PDE6 from bovine retina; for PDE6 IC50/PDE5 IC50: selectivity of PDE5 versus PDE6.
From the text: as §1

The test system of data set [5] is male KM mouse. As to the kind of experiment: Acute oral toxicity test. In kind it is in vivo. To be noted: single oral dose of 3 g/kg, 10 or 11 mice per group. On the procedure: In this test male KM mouse weighting 18-22 g were used, and 10 or 11 mouse were assigned randomly to each group. […] The animals were fasted for 12 hours before the administration.
Where [6] appears, read: PDE5 in the PDE6 selectivity table.

T1 sequence (Q14432 whole entry): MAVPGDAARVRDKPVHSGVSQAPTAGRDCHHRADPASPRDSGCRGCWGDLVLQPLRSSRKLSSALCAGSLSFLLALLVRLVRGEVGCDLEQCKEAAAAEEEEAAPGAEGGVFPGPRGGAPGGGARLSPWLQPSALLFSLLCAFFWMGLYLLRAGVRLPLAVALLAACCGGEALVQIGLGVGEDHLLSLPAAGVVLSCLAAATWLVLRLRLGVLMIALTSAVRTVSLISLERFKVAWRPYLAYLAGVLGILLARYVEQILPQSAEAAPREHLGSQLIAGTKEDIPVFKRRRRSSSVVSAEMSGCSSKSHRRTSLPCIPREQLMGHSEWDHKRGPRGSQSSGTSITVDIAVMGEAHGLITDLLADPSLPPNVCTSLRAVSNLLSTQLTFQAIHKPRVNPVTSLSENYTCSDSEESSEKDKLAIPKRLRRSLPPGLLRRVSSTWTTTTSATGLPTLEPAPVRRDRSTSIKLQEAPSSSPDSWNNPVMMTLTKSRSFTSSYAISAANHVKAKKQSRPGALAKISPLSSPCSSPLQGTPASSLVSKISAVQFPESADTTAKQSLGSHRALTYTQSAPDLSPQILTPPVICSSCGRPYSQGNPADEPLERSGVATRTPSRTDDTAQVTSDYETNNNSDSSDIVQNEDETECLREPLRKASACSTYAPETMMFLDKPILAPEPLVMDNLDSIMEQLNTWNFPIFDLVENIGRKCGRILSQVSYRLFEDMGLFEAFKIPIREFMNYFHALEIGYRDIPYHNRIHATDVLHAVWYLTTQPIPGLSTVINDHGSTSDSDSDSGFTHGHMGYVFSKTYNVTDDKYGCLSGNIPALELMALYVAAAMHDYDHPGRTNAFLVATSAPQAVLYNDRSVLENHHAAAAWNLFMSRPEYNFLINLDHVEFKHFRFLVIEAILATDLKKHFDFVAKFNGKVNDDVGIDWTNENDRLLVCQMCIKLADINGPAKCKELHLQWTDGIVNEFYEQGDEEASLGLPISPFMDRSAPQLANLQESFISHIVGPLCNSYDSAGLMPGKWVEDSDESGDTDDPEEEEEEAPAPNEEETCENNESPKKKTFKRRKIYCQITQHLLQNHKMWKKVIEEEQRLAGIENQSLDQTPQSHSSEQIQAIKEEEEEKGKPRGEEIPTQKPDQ

As to `CCCOc1ccc(S(=O)(=O)N(C)CCOC(C)=O)cc1-c1nc2c(CCC)nn(C)c2c(=O)[nH]1` [Example 33, 1-methyl-5-{2-propoxy-5-[[1-methyl-1-(2-acetoxyethyl)]amidosulfonyl]phenyl}-3-n-propyl-1,6-dihydro-7H-pyrazolo[4,3-d]pyrimidin-7-one], the ICP/BP in data set [1] stood at 72.3 ± 28.6. The compound also displayed an IC50 in data set [2] of 30400 nM.

With `CCCOc1ccc(S(=O)(=O)N(CC)CCN2CCOCC2)cc1-c1nc2c(CC)nn(C)c2c(=O)[nH]1` [Example 54, 1-methyl-5-{2-propoxy-5-[[1-ethyl-1-(2-morpholin-1-yl)ethyl]amidosulfonyl]phenyl}-3-ethyl-1,6-dihydro-7H-pyrazolo[4,3-d]pyrimidin-7-one], the ICP/BP in data set [1] is 86.3 ± 6.4. For the same compound, the IC50 is 9.81 nM in data set [3] (PDE5 from human platelets), 9.81 nM in data set [3] (setting [6]), 235 nM in data set [4] and 16300 nM in data set [2]. Moreover, in data set [4], the “PDE6 IC50/PDE5 IC50” value was found to be 23.9. Further, in data set [5], the Number of death was 0. The compound further came in with a mortality rate in data set [5] of 0%.

As to `CCCOc1ccc(S(=O)(=O)N(CCN2CCOCC2)Cc2cccnc2)cc1-c1nc2c(CCC)nn(C)c2c(=O)[nH]1` [Example 62, 1-methyl-5-{2-propoxy-5-[[1-(3-pyridylmethyl)-1-(2-morpholin-1-yl)ethyl]amidosulfonyl]phenyl}-3-n-propyl-1,6-dihydro-7H-pyrazolo[4,3-d]pyrimidin-7-one], the ICP/BP in data set [1] is on record as 69.8 ± 12.2. Also, in data set [2], the IC50 was 2860 nM. For the same compound, in data set [5], the Number of death amounted to 6 and the mortality rate came to 60%.

Consider `CCCOc1ccc(S(=O)(=O)N(CCN2CCCC2)Cc2cccnc2)cc1-c1nc2c(CCC)nn(C)c2c(=O)[nH]1` [Example 89, 1-methyl-5-{2-propoxy-5-[[1-(3-pyridylmethyl)-1-(2-pyrrolidin-1-yl)ethyl]amidosulfonyl]phenyl}-3-n-propyl-1,6-dihydro-7H-pyrazolo[4,3-d]pyrimidin-7-one], for which, in data set [1], the ICP/BP is 70.9 ± 9.8. The same compound had an IC50 in data set [3] (PDE5 from human platelets) of 7.85 nM. In data set [3] (setting [6]), half-maximal inhibition (IC50) was put at 7.85 nM. In addition, in data set [4], the midpoint of inhibition, the IC50, lay at 215 nM and the “PDE6 IC50/PDE5 IC50” value is listed as 27.4. In data set [5], this compound registered a Number of death of 5 and a mortality rate of 45%.

On to `CCCOc1ccc(S(=O)(=O)N(CCCO)CCCOC(C)=O)cc1-c1nc2c(CCC)nn(C)c2c(=O)[nH]1` [Example 92, 1-methyl-5-{2-propoxy-5-[[1-(3-acetoxypropyl)-1-(3-hydroxypropyl)]amidosulfonyl]phenyl}-3-n-propyl-1,6-dihydro-7H-pyrazolol[4,3-d]pyrimidin-7-one], for which the ICP/BP in data set [1] came out at 86.4 ± 4.8. The IC50 came to 3.85 nM in data set [3] (PDE5 from human platelets), 3.85 nM in data set [3] (setting [6]), 254 nM in data set [4] and 10500 nM in data set [2]. The “PDE6 IC50/PDE5 IC50” value in data set [4] came to 66.0. Besides, the Number of death in data set [5] is recorded as 0. In addition, the mortality rate in data set [5] came to 0%.

`CCCOc1ccc(S(=O)(=O)N(CCCOC(C)=O)CCCOC(C)=O)cc1-c1nc2c(CCC)nn(C)c2c(=O)[nH]1` [Example 93, 1-methyl-5-{2-propoxy-5-[bis(3-acetoxypropyl)amidosulfonyl]phenyl}-3-n-propyl-1,6-dihydro-7H-pyrazolo[4,3-d]pyrimidin-7-one]: the ICP/BP in data set [1] turned out to be 77.2 ± 24.8. For the same compound, the IC50 stood at 3.8 nM in data set [3] (PDE5 from human platelets) and 6000 nM in data set [2]. This compound also returned a Number of death in data set [5] of 0. The mortality rate in data set [5] turned out to be 0%.

For `CCCOc1ccc(S(=O)(=O)N(CC)CCCOC(C)=O)cc1-c1nc2c(CCC)nn(C)c2c(=O)[nH]1` [Example 97, 1-methyl-5-{2-propoxy-5-[[1-ethyl-1-(3-acetoxypropyl)]amidosulfonyl]phenyl}-3-n-propyl-1,6-dihydro-7H-pyrazolo[4,3-d]pyrimidin-7-one], the ICP/BP in data set [1] stood at 72.0 ± 13.5. In data set [3] (PDE5 from human platelets), inhibition was half-maximal at 13.1 nM (IC50). The compound also had an IC50 in data set [2] of 5120 nM. In data set [5], this compound yielded a Number of death of 5 and a mortality rate of 45%.

For `CCCOc1ccc(S(=O)(=O)N(CCCO)CCCOC)cc1-c1nc2c(CCC)nn(C)c2c(=O)[nH]1` [Example 99, 1-methyl-5-{2-propoxy-5-[[1-(3-methoxypropyl)-1-(3-hydroxypropyl)]amidosulfonyl]phenyl}-3-n-propyl-1,6-dihydro-7H-pyrazolo[4,3-d]pyrimidin-7-one], the ICP/BP in data set [1] worked out at 56.2 ± 9.3. Moreover, half-maximal inhibition in data set [3] (PDE5 from human platelets) (IC50) required 4.03 nM. Besides, in data set [5], the Number of death was determined as 1 and the mortality rate amounted to 10%.

As for `CCCOc1ccc(S(=O)(=O)N(CCOCC)CCN2CCOCC2)cc1-c1nc2c(CCC)nn(C)c2c(=O)[nH]1` [Example 111, 1-methyl-5-{2-propoxy-5-[[1-(2-ethoxyethyl)-1-(2-morpholin-1-yl)ethyl]amidosulfonyl]phenyl}-3-n-propyl-1,6-dihydro-7H-pyrazolo[4,3-d]pyrimidin-7-one], the ICP/BP in data set [1] worked out at 89.1 ± 6.9. In data set [3] (PDE5 from human platelets), this compound returned a half-maximal inhibitory concentration (IC50) of 6.83 nM. Besides, the midpoint of inhibition in data set [2], the IC50, lay at 8730 nM. In data set [5], this compound yielded a Number of death of 0 and a mortality rate of 0%.
